“Also recorded” adds a separate entry of the source.
What was measured:
[1] = test system: fat/STZ rat; experiment: Basal hepatic glucose production by intravenous infusion of radiolabeled glucose; assay type: in vivo; conditions: no insulin infused, p<0.05
Experimental: Studies were also conducted to determine the mechanism by which NDGA lowers glucose. To do so, NDGA was administered to determine the effects of NDGA on insulin-stimulated glucose disposition and on basal hepatic glucose production using the high fat diet fed/streptozotocin (STZ) rat model of NIDDM. Whole-body insulin-stimulated glucose disposition was measured using a constant intravenous glucose/insulin infusion, in which the steady-state plasma insulin concentration (SSPI) is held constant and the steady-state plasma glucose concentration (SSPG) is a measure of net glucose clearance. […] In these same studies basal hepatic glucose production was measured using an intravenous infusion of radiolabeled glucose (no insulin was infused).
Studies were conducted to determine the effects of NDGA (masoprocol) on insulin-stimulated glucose disposition and on basal hepatic glucose production using the fat/STZ rat. Whole-body insulin-stimulated glucose disposition was measured using a constant intravenous glucose/insulin infusion, in which the steady-state plasma insulin concentration (SSPI) is held constant and the steady-state plasma glucose concentration (SSPG) is a measure of net glucose clearance.

[2] = First Phase I ascending single-dose study, NDGA concentrations in plasma after oral capsules; assay type: in vivo, human; conditions: for AUC0-last / Cmax / Tmax: capsule, healthy male volunteers
Experimental: (§1) The first Phase I study of NDGA was an ascending-dose, single-dose, single-blind (subject), placebo-controlled study conducted in healthy male volunteers between 18 and 45 years old. Fourteen subjects participated in up to 3 study periods, and 5 doses of NDGA were studied: 200, 400, 800, 1600, and 2000 mg. During each study period the subjects were monitored for safety for 72 hours following NDGA oral administration. Blood samples collected following NDGA administration were used to determine NDGA concentrations in plasma. […] The orally administered NDGA used in the study was contained in white, opaque, size 3 gelatin capsules. Each capsule contained 100 mg of NDGA.
The results for each of the five doses are depicted in FIGS. 4 to 8 corresponding to 200, 400, 800, 1600 and 2000 mg dosages, respectively.
The pharmacokinetic parameters of NDGA as observed in this experiment are given below in Table 1: […]

[3] = cited from earlier work
[4] = test system: rat adipocytes; conditions: cited from earlier work
[5] = Phase I safety study, patients reporting adverse events; assay type: in vivo, human; conditions: n = 29
Experimental: as §1
The second Phase I study of NDGA was an open-label, randomized, two-period crossover study designed to determine if a high-fat meal affects the absorption of NDGA, and to provide preliminary information about possible gender differences in the pharmacokinetics of NDGA. A total of 16 healthy volunteers (8 men and 8 women), ranging in age from 19 to 48 years old, participated in this study. Each subject received an active NDGA dose under fasted conditions and another under fed conditions (the two study periods were separated by a 7-day washout period). Blood samples were collected immediately before and for 48 hours following NDGA administration and used for determination of plasma concentrations of NDGA. The NDGA used in the study was provided in white, opaque Size 0 gelatin capsules. Each capsule contained 250 mg of NDGA.

[6] = test system: cecum; conditions: in vivo; cited from earlier work
[7] = test system: liver triglyceride secretion; experiment: Liver triglyceride secretion; assay type: in vivo; conditions: NDGA treatment
From the text: It is likely that the triglyceride-lowering effect of NDGA may also be explained, at least in part, by the suppression of free fatty acid (FFA) release. Free fatty acids in the circulation can enter the liver and can be re-assembled into triglycerides by the process of re-esterification. […] It should be noted that other mechanisms for reducing triglycerides, such as increased triglyceride clearance, are not ruled out by these findings.
The triglyceride-lowering effect of NDGA may be explained by the suppression of free fatty acid (FFA) release. Free fatty acids in the circulation can enter the liver and be re-assembled into triglycerides in a process known as re-esterification.

[8] = test system: ZDF rats; experiment: Glucose and triglyceride lowering in ZDF rats; assay type: in vivo, rat
From the text: In this study, the following animal models where used: • Db/db mice: homozygous mice are a model of obesity, diabetes and dyslipedemia where their leptin receptor activity is deficient. • Ob/ob mice: obese mice with diabetes. • Db/lean mice: heterozygous mice that are not diabetic. • Fat/STZ rats: non-genetically diabetic overweight rats that are fed diets enriched in fat and made hyperglycemic by chemically removing their pancreatic function to reduce insulin production by treating them with streptozotocin (STZ). • Fructose/STZ rats: non-diabetic rats that are fed diets enriched in fructose and made hyperglycemic by treating them with STZ. • ZDF rats: obese and hyperglycemic rats with other metabolic disorders.
Baseline glucose and triglyceride concentrations, where appropriate, were measured for both diabetic and normal animals.

**Q.** Which “hourly hepatic glucose production compared to vehicle” value [1] does the source give for `CC(Cc1ccc(O)c(O)c1)C(C)Cc1ccc(O)c(O)c1` (stereo not drawn) [NDGA, nordihydroguaiaretic acid] here?
**A.** The value was “significantly reduced hourly hepatic glucose production”.

**Q.** What about the AUC0-last ([2]; 200 mg single oral dose) of the same compound?
**A.** Its AUC0-last is 66 +/− 26 ng-eq hr/ml.

**Q.** And the Cmax ([2]; 200 mg single oral dose)?
**A.** The Cmax was 32.6 +/− 15.3 ng-eq/ml.

**Q.** What about the Tmax ([2]; 200 mg single oral dose) of the same compound?
**A.** Its Tmax is 1.3 ± 0.5 h.

**Q.** What about the AUC0-last ([2]; 400 mg single oral dose) of the same compound?
**A.** The AUC0-last was 385 +/− 90 ng-eq hr/ml.

**Q.** And the Cmax ([2]; 400 mg single oral dose)?
**A.** The Cmax was 69.1 +/− 51.6 ng-eq/ml.

**Q.** What about the Tmax ([2]; 400 mg single oral dose) of the same compound?
**A.** Its Tmax is 1.8 ± 0.5 h.

**Q.** What about the AUC0-last ([2]; 800 mg single oral dose) of the same compound?
**A.** Its AUC0-last is 591 +/− 252 ng-eq hr/ml.

**Q.** What about the Cmax ([2]; 800 mg single oral dose) of the same compound?
**A.** Its Cmax is 120.3 +/− 66.3 ng-eq/ml.

**Q.** What about the Tmax ([2]; 800 mg single oral dose) of the same compound?
**A.** The Tmax was 1.8 ± 1.0 h.

**Q.** And the AUC0-last ([2]; 1600 mg single oral dose)?
**A.** The AUC0-last was 889 +/− 252 ng-eq hr/ml.

**Q.** What about the Cmax ([2]; 1600 mg single oral dose) of the same compound?
**A.** Its Cmax is 189.3 +/− 65.7 ng-eq/ml.

**Q.** What about the Tmax ([2]; 1600 mg single oral dose) of the same compound?
**A.** The Tmax was 1.5 ± 0.6 h.

**Q.** And the AUC0-last ([2]; 2000 mg single oral dose)?
**A.** Its AUC0-last is 1380 +/− 514 ng-eq hr/ml.

**Q.** And the Cmax ([2]; 2000 mg single oral dose)?
**A.** Its Cmax is 187.6 +/− 106.0 ng-eq/ml.

**Q.** And the Tmax ([2]; 2000 mg single oral dose)?
**A.** Its Tmax is 1.0 ± 0.0 h.

**Q.** What about the “Safety of each tested dose” value ([2]; 200, 400, 800, 1600 and 2000 mg single oral dose, monitored 72 hours) of the same compound?
**A.** Its value is “considered safe”.

**Q.** And the “Shape of concentration vs. time curves” value ([2]; all five doses, 200 to 2000 mg)?
**A.** Its value is “unimodal (single peak)”.

**Q.** What about the “Dose proportionality of peaks” value ([2]; increasing dose levels, 200 to 2000 mg) of the same compound?
**A.** The value was “less than dose proportional”.

**Q.** And the Elimination ([2]; oral capsule (immediate release), lower dose levels)?
**A.** The Elimination was “rapid elimination”.

**Q.** And the “solubility in aqueous media / water” value ([3]; aqueous media)?
**A.** The value was “poorly water-soluble; also recorded: insoluble”.

**Q.** And the “solubility in organic solvents” value ([3]; organic solvents such as methanol and ethanol)?
**A.** The value was “soluble”.

**Q.** What about the glucose transport ([4]; adipocytes, in vitro) of the same compound?
**A.** Its glucose transport is “directly stimulates glucose transport”.

**Q.** And the isoproterenol-induced lipolysis ([4]; rat adipocytes, in vitro (Gowri et al., 1999))?
**A.** Its isoproterenol-induced lipolysis is “inhibition”.

**Q.** And the “Patients reporting adverse event: Abdominal pain” value ([5]; Body as a whole)?
**A.** Its value is 1.

**Q.** And the “Patients reporting adverse event: Asthenia” value ([5]; Body as a whole)?
**A.** Its value is 2.

**Q.** What about the “Patients reporting adverse event: Headache” value ([5]; Body as a whole) of the same compound?
**A.** The value was 8.

**Q.** What about the “Patients reporting adverse event: Neck rigidity” value ([5]; Body as a whole) of the same compound?
**A.** The value was 1.

**Q.** What about the “Patients reporting adverse event: Pain” value ([5]; Body as a whole) of the same compound?
**A.** Its value is 1.

**Q.** And the “Patients reporting adverse event: Syncope” value ([5]; Cardiovascular system)?
**A.** Its value is 1.

**Q.** And the “Patients reporting adverse event: Diarrhea” value ([5]; Digestive system)?
**A.** The value was 2.

**Q.** What about the “Patients reporting adverse event: Dyspepsia” value ([5]; Digestive system) of the same compound?
**A.** The value was 1.

**Q.** And the “Patients reporting adverse event: GI hemorrhage” value ([5]; Digestive system)?
**A.** The value was 1.

**Q.** What about the “Patients reporting adverse event: Increased appetite” value ([5]; Digestive system) of the same compound?
**A.** The value was 1.

**Q.** What about the “Patients reporting adverse event: Vomiting” value ([5]; Digestive system) of the same compound?
**A.** The value was 1.

**Q.** And the “Patients reporting adverse event: Dizziness” value ([5]; Nervous system)?
**A.** The value was 1.

**Q.** What about the “Patients reporting adverse event: Hyperesthesia” value ([5]; Nervous system) of the same compound?
**A.** The value was 1.

**Q.** And the “Patients reporting adverse event: Increased coughing” value ([5]; Respiratory system)?
**A.** Its value is 1.

**Q.** What about the “Patients reporting adverse event: Pharyngitis” value ([5]; Respiratory system) of the same compound?
**A.** Its value is 1.

**Q.** And the “Patients reporting adverse event: Eye pain” value ([5]; Special senses)?
**A.** The value was 1.

**Q.** What about the “Patients reporting adverse event: Hematuria” value ([5]; Urogenital system) of the same compound?
**A.** The value was 1.

**Q.** And the “lesions in the cecum” value [6]?
**A.** Its value is “known to cause lesions in the cecum”.

**Q.** What about the liver triglyceride secretion [7] of the same compound?
**A.** Its liver triglyceride secretion is “inhibit liver triglyceride secretion”.

**Q.** What about the plasma triglyceride lowering [8] of the same compound?
**A.** The plasma triglyceride lowering was “significantly and dramatically lowered plasma triglycerides”.

**Q.** What about the glucose lowering ([8]; given orally) of the same compound?
**A.** Its glucose lowering is “significantly lowers glucose”.
